From patent US9107814B2, “Micelle composition of polymer and passenger drug” (Wisconsin Alumni Research Foundation, priority 2005, dated 2015)

Experiments:
[1] = loading of rapamycin and geldanamycin into PEG-DSPE and PEG-PCL micelles; type: physicochemical; conditions: micelle solution against water solubility
Text: The final solvent to water ratio is between about 0.1 and about 5, preferably between about 0.5 and about 4, and more preferably about 2. The micelle solution should be delivered at a rate of between about 2 s/drop and about 60 s/drop, preferably between about 5 s/drop and about 30 s/drop, and more preferably between about 10 s/drop and about 20 s/drop.

[2] = different species; cited from earlier work

Description for physchem: The octanol-water partition coefficient of geldanamycin was determined by microemulsion electrokinetic chromatography.
Running buffer was prepared by titration of 25-mM sodium phosphate monobasic with 50-mM sodium tetraborate to pH 7.00, and 1.44 g of sodium dodecyl sulfate, 6.49 g of 1-butanol, and 0.82 g of heptane were made up to 100 ml with phosphate-borate buffer. The running buffer was ultrasonicated for 30 min in a closed 250-ml flask in ice water (G112SP1 Special Ultrasonic Cleaner, Laboratory Supplies Company Inc., Hicksville, N.Y.). […] Compounds and standards (n=3) were dissolved in the running buffer (0.05 mg/ml) with 0.5 μL/ml of nitromethane and 0.5 μL/ml of 1-phenyldodecane by ultrasonication (10 min) in a closed tube and centrifuged (16000×g, 3 min) to degas. A BioFocus 3000 capillary electrophoresis system (Bio-Rad, Hercules, Calif.) equipped with a 50-μm ID×37-cm uncoated fused-silica column (Polymicron Technologies LLC, Phoenix, Ariz.) was used for MEEKC experiments. The column was prewashed with 1-M NaOH for 5 min and before runs with 0.1-M NaOH for 1 min, ddH2O for 1 min, and running buffer for 1 min at 100 psi (690 kPa). Running conditions were 10 kV (ca. 30-35 μA, 30 min/run) at 20° C. with 1-psi·s injections (6.9 kPa·s) and detection at 210 and 232 nm. Log Po/w and retention factors, k′, were calculated using the equations:
[formula] [formula] where tr, t0, and tme are retention times of the prodrug, nitromethane, and 1-phenyldodecane, respectively. Fitting parameters a and b were determined by linear regression of known standards: pyridine, phenol, benzoic acid, anisole, benzene, toluene, dodecanoic acid, benzopyrene, and pyrene (R^2=0.996, Excel® 2003, Microsoft Corp.).

chromatographic logP (physchem): 3.77
increase in solubility [1]: 1900 fold
SMILES: CO[C@H]1C[C@@H]2CC[C@@H](C)[C@@](O)(O2)C(=O)C(=O)N2CCCC[C@H]2C(=O)O[C@H]([C@H](C)C[C@@H]2CC[C@@H](O)[C@H](OC)C2)CC(=O)[C@H](C)/C=C(\C)[C@@H](O)[C@@H](OC)C(=O)[C@H](C)C[C@H](C)/C=C/C=C/C=C/1C [Rapamycin]
half-life [2]: more than 5 hours
